Source: US12577267B2, “Pyrimidine compounds for use as MAP4K1 inhibitors” (GLENMARK SPECIALITY S.A., priority 2021, dated 2026)
Where a name gives a salt, the structure may show the parent alone. Read-outs that look alike come from different tables or passages of the source.

How the values were obtained:
MAP4K-1 enzyme = MAP4K-1 enzyme (Homo sapiens, UniProt Q92918); experiment: FRET one step binding assay (tracer displacement)
Procedure, shortened: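 TR-FRET tracer-displacement binding with 5 nM GST-tagged MAP4K-1 and 2 nM Eu-anti-GST antibody in 50 mM HEPES pH 7.5, 10 mM MgCl2, 1 mM EGTA, 0.01% Brij-35, 3% DMSO final. Compound pre-incubated 15 min on ice, then 1 h at room temperature after tracer addition. IC50 from nonlinear regression of percent-of-control dose-response.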

CT26 tumor = experiment: Anti-tumor efficacy on a syngeneic mouse colon tumor model of CT26; type: in vivo, BALB/c mice
Description: Evaluation of Anti-Tumor Efficacy of Example 2 and Example 30 on a Syngeneic Mouse Colon Tumor Model of CT26.
Healthy female BALB/c mice (7 to 9 weeks old and 15 to […]) were obtained from Glenmark animal facility. Animals were group housed in polypropylene cages at a controlled temperature of 20-22° C. with a light/dark cycle of 12/12 hours. They were maintained on an ad lib standard mouse pellet diet and water and all animal experiments were performed as per protocols approved by the Institutional Animal Ethics Committee (IAEC).
CT-26 cell line was obtained from American type culture (ATCC® CRL-2638™). Cells were revived in T-flask (passage 5) with complete RPMI-1640 media and incubated at 37° C. in 5% CO2, 80% relative humidity. Cells were re-suspended, pooled and split into 1:10 ratio per flask, maintained for 3 passages and passage 8 was used for cell inoculation into animals.
The right flank region of mice was shaved by electronic shaver. Required number of CT26 cells (10 million per mL of serum free media) received on ice from cell culture lab. The mice were anesthetized by isoflurane with O2 (oxygen flow meter to 1-2 liter/min and turn isoflurane vaporizer dial to 2-3%). The cells were inoculated into the right flank region of mice at cell concentration of 1 million cells/100 μL/mouse. The inoculated mice were housed in the animal room with daily observation for any undue clinical signs.
On day 10 after cell inoculation, mice were randomized based on tumor volume and grouped into different treatment groups. The mice with tumor volume range of 57 mm^3 to 119 mm^3 were included in efficacy study. Tumor volume was measured using digital vernier caliper.
The volume calculations were obtained using the formula V(mm^3)=[L×(W×W)]×0.52 • V is tumor volume, L is tumor length and W is tumor width
Compound Preparation and Administration
0.5% v/v Tween 80 and 0.5% w/v Methyl Cellulose in distilled water was used as vehicle for oral formulation. Example 2 and Example 30 were weighed and a stock suspension of 50 mg/kg/10 mL was prepared in a mortar and pestle by adding Tween 80 (0.5% v/v), Methyl cellulose (MC, 0.5% w/v). […] The body weights were recorded on daily basis and the dosing time was maintained throughout the study. […]
Tumor volume was measured in a blinded manner throughout the study. […] The % TGI was calculated by following the formula: [1−{(Tt−T0)/(Ct−C0)}]×100. • Tt=Tumor volume of treatment group on day of tumor volume • T0=Tumor volume of treatment group on day of randomization • Ct=Tumor volume of vehicle control group on day of tumor volume • C0=Tumor volume of control group on day of randomization Sacrifice Plan […]
Tumor volume data was statistically analyzed using Two-way ANOVA followed by Bonferroni's Multiple Comparison Test. […]

Sequence of MAP4K-1 enzyme (Q92918 whole entry): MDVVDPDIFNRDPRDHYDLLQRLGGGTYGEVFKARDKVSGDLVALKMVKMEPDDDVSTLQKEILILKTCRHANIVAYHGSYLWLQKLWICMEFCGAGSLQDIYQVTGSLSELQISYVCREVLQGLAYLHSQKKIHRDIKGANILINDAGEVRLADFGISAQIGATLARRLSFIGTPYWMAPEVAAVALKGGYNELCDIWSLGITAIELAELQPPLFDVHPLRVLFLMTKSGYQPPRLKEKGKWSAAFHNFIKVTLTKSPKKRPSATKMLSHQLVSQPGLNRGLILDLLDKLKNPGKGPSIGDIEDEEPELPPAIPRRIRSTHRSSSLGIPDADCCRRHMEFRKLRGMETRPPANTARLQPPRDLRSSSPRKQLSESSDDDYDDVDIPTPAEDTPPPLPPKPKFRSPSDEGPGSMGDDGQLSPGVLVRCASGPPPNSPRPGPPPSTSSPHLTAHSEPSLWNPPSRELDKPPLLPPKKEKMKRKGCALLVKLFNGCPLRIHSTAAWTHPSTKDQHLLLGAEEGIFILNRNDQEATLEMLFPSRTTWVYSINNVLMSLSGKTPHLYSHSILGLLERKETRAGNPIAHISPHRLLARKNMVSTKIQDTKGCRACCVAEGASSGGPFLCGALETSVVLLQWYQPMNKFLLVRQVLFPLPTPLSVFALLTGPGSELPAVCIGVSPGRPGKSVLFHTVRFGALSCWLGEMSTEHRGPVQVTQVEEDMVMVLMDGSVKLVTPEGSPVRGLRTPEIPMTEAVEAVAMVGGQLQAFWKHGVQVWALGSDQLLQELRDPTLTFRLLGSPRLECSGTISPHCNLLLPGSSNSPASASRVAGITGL

SMILES | IC50 (MAP4K-1 enzyme) | % Inhibition at 1 μM (MAP4K-1 enzyme; 1 μM compound, 1 µM) | % Inhibition at 10 μM (MAP4K-1 enzyme; 10 μM compound, 10 µM) | Tumor growth inhibition (TGI) (CT26 tumor; 10 mg/kg p.o. QD, day 25, vs vehicle group) | Tumor growth inhibition (TGI) (CT26 tumor; 50 mg/kg p.o. QD, day 25, vs vehicle group) | inhibition at 1 µM (MAP4K-1 enzyme; 1 μM compound) | inhibition at 10 µM (MAP4K-1 enzyme; 10 μM compound) | IC50 (MAP4K-1 enzyme; IC50 (nM)) | Tumor growth inhibition (TGI) (CT26 tumor; 10 mg/kg p.o. QD, day 24, vs vehicle group) | Tumor growth inhibition (TGI) (CT26 tumor; 50 mg/kg p.o. QD, day 24, vs vehicle group)
COc1cc2c(cc1Nc1ncc(Cl)c(Nc3ccc(OS(=O)(=O)F)cc3P(C)(C)=O)n1)C(C)N(C)CC2 (single isomer, unassigned; isomer 2) [Example 30, 4-((5-Chloro-2-((6-methoxy-1,2-dimethyl-1,2,3,4-tetrahydroisoquinolin-7-yl)amino)pyrimidin-4-yl)amino)-3-(dimethylphosphoryl)phenyl sulfofluoridate dihydrochloride (Isomer 2)] | < 50 nM | 79.12% | 82.70% | 37% | 62% |  |  |  |  | 
COc1cc2c(cc1Nc1ncc(Cl)c(Nc3ccc(OS(=O)(=O)F)cc3P(C)(C)=O)n1)CN(C)CC2 [Example 2, 4-((5-chloro-2-((6-methoxy-2-methyl-1,2,3,4-tetrahydroisoquinolin-7-yl)amino)pyrimidin-4-yl)amino)-3-(dimethylphosphoryl)phenyl sulfofluoridate dihydrochloride] |  |  |  |  |  | 86% | 82.1% | < 50 nM | 40% | 61%
